We go through 16 compounds from patent US8796246B2, “9, 10-secopregnane derivative and pharmaceutical” (Nippon Shinyaku Co., Ltd., priority 2006, dated 2014).

Series [1] concerns human acute myelogenous leukemia cell line HL-60. The experiment in a line: Ability to induce differentiation of HL-60 cells (oxygen radical production after phorbol ester, WST-1). Type of series: cell-based. Particulars: 72 hours incubation, then WST-1 and phorbol 12,13-didecanoate for 4 hours, absorbance at 450 nm. The text has this: It is known that the human acute myelogenous leukemia cell line HL-60is differentiated into neutrophil-like cells by active vitamin D or the like. Thus, the cells after the differentiation begin to express a surface marker such as CD11and CD32and, at the same time, they produce an oxygen radical by stimulation with a phorbol ester or the like. In this test, the above-mentioned property was utilized. As an index of the ability to induce differentiation of the HL-60cells, the amount of the oxygen radical produced by stimulation with a phorbol ester was measured, and the compounds of the invention mentioned in Examples were compared with maxacalcitol with respect to the vitamin D3activity thereof. In use of commercial reagents and kits, if any, the indications attached thereto were referred to.
HL-60cells (supplied from ATCC) were seeded on a 96-well plate at 5×10^3cells/100μL/well and a test compound in two-fold dilution series from 10^−7M was added to the second to the twelfth rows (maximum concentration: the second row). The first row was used for blank. After incubation for 72 hours under a moisturized condition in the presence of 5% CO2 at 37° C. using a CO2 incubator, 10 μL of PBS containing 50 mM WST-1 (manufactured by Takara Bio) and 10 μM phorbol 12,13-didecanoate (manufactured by SIGMA) were added to each well followed by further incubation for 4 hours. Absorbance (reference wavelength: […]) at […] of the WST-1 formazane dye generated by conversion from WST-1 by oxygen radical produced from the differentiated HL-60 cells was measured by a Benchmark microplate reader (manufactured by BioRad). An absorbance meter control software MPM3 (manufactured by BioRad) was used and, from a concentration-absorbance curve, the 50%-maximal effective concentration (hereinafter, referred to as “EC50”) of each was determined by a logistic curve regression.
A general note: Tetrazolium assays rely on reduction of a dye to a coloured formazan, in cell work by metabolically active cells.

A short description of series [2]: Metabolic rate in human liver microsome. Particulars: pooled human liver microsome 1 mg/mL protein, NADPH-regenerating system, 37° C., 2-60 minutes, HPLC. Type of series: in vitro ADME. How it is done:
The compounds of the invention mentioned in Examples and maxacalcitol were compared with each other with respect to the metabolic rate in human liver microsome.
As to the pooled human liver microsome (HHM-0323), those manufactured by Tissue Transformation Technologies were used. A 0.25 M potassium phosphate buffer (pH 7.4) (200 μL), 5 μL of a 250 μM solution of each compound to be tested in DMSO, 50 μL of an NADPH-regenerating system (where 20 mg of β-NADP^+, 70 mg of glucose-6-phosphate, 40 units of glucose-6-phosphate dehydrogenase and 20 mg of magnesium chloride were dissolved in 1 mL of distilled water) and 220 μL of distilled water were added to a microtube and the mixture was subjected to a preincubation for 5 minutes at 37° C. Reaction was started by an addition of 25 μL of human liver microsome (final concentration of protein: 1 mg/mL). Incubation was performed for 2, 10, 30 or 60 minutes and the reaction was stopped by an addition of 500 μL of acetonitrile. After centrifugation at 13,000 rpm for 5 minutes, each test compound in the supernatant (25 μL) was measured by HPLC under the following conditions.
Inertsil ODS-3 (4.6×150 mm; GL Science) was used as a column. With regard to the mobile phase, a solution A (acetonitrile/0.1% aqueous solution of ammonium acetate=10/90) and a solution B (acetonitrile/0.1% aqueous solution of ammonium acetate=90/10) were used under the linear gradient conditions mentioned in Tables 5 to 7. The column temperature, the flow rate and the wavelength for detection were set at 40° C., 1.0 mL/min. and UV 250 or 270 nm, respectively.
The compound mentioned in Example 38 was analyzed under the condition shown in Table 6; the compounds mentioned in Examples 55, 56, 68, 69, 72 and 73 were under the condition shown in Table 7; and the other compounds were under the condition shown in Table 5.
The compounds described in Examples 40, 43 to 48, 50, 55, 56, 58, 60, 61, 63 and 65 to 73 were analyzed under the condition of UV 250 nm; and the other compounds were under the condition of UV 270 nm.
From the HPLC test results as above, the metabolic rate of the test compound was calculated.
For orientation: Liver microsomes are a subcellular fraction often used to study metabolism.

Series [3] in a line: Action to increase the urinary excretion of calcium (1), percutaneous administration. Particulars: percutaneous 10 μg/200 μL/kg/day once a day for 4 days. Type of series: in vivo, SD male rats. How it is done: The compound of the invention mentioned in Example 1, 36, 43, 47, 48, 55 or 70 or maxacalcitol in ethanol containing 0.5% DMSO was repeatedly subjected to a percutaneous administration (10 μg/200 μL/kg/day) once a day for 4 days onto the back of SD male rats (7 weeks of age). Ethanol containing 0.5% DMSO was administered to a control group. The calcium concentration in urine collected every 24 hours was measured and multiplied by the amount of urine to calculate the urinary excretion of calcium. The calcium excretion in urine shown in Table 3 indicates the accumulated calcium excretion from 0 to 24 hours, from 0 to 48 hours, from 0 to 72 hours, and from 0 to 96 hours.

One may read the EC50 as the concentration needed to bring the measured effect to its halfway point. High values mean a less potent agent, low ones a more potent agent.

Take `C=C1[C@H](O)CC(=C/C=C2\CCC[C@]3(C)C([C@H](C)OC(=O)CCC(C)(C)O)=CC[C@@H]23)C[C@H]1O` [Compound of Example 48, (1R,3R,20S)-19-nor-2-methylene-20-(4-hydroxy-4-methylpentanoyloxy)-9,10-secopregna-5Z,7E,16-triene-1,3-diol]: in series [1], the concentration giving a half-maximal response (EC50) came out at 0.21 nM. In series [2], the “Metabolic Rate” value amounted to 69 pmol/min/mg. Further, the “Calcium in Urine within 24 hours” value in series [3] (accumulated excretion 0 to 24 hours) came to 1.1 mg. For the same compound, the “Calcium in Urine within 48 hours” value in series [3] (accumulated excretion 0 to 48 hours) came to 1.9 mg. In series [3] (accumulated excretion 0 to 72 hours), the “Calcium in Urine within 72 hours” value turned out to be 3.5 mg. For the same compound, the “Calcium in Urine within 96 hours” value in series [3] (accumulated excretion 0 to 96 hours) is listed as 5.2 mg.
`C=C1C(=CC=C2CCCC3(C)C2CCC3C(C)OC(=O)C=CC(O)(CC)CC)CC(O)CC1O` [Compound of Example 10, (1S,3R,20S)-20-[(2E)-4-ethyl-4-hydroxyhex-2-enoyloxy]-9,10-secopregna-5Z,7E,10(19)-triene-1,3-diol] had a concentration for a half-maximal effect (EC50) in series [1] of 0.99 nM. In series [2], the “Metabolic Rate” value was found to be 58 pmol/min/mg.
Take `C=C1C(=CC=C2CCCC3(C)C2CCC3C(C)OC(=O)CCCC(C)(C)O)CC(O)CC1O` [Compound of Example 3, (1S,3R,20S)-20-(5-hydroxy-5-methylhexanoyloxy)-9,10-secopregna-5Z,7E,10(19)-triene-1,3-diol]: the midpoint of the response in series [1], the EC50, lay at 4.5 nM. The “Metabolic Rate” value in series [2] is listed as 22 pmol/min/mg.
In the case of `CC(OC(=O)CCC(C)(O)C(F)(F)F)C1CCC2C(=CC=C3CC(O)CC(O)C3)CCCC21C` [Compound of Example 73, (1R,3R,20S)-19-nor-20-[(4R)-5,5,5-trifluoro-4-hydroxy-4-methylpentanoyloxy]-9,10-secopregna-5Z,7E-diene-1,3-diol], in series [1], it took 1.3 nM to reach a half-maximal effect (EC50). In addition, in series [2], the “Metabolic Rate” value amounted to 63 pmol/min/mg.
Consider `CC(OC(=O)CCC(C)(O)C(F)(F)F)C1=CCC2C(=CC=C3CC(O)CC(O)C3)CCCC12C` [Compound of Example 68, (1R,3R,20S)-19-nor-20-[(4S)-5,5,5-trifluoro-4-hydroxy-4-methylpentanoyloxy]-9,10-secopregna-5Z,7E,16-triene-1,3-diol], for which the EC50 in series [1] came to 0.23 nM. In addition, the “Metabolic Rate” value in series [2] is listed as 126 pmol/min/mg.
For `C=C1C(O)CC(=CC=C2CCCC3(C)C2CCC3C(C)OC(=O)CCC(C)(C)O)CC1O` [Compound of Example 41, (1R,3R,20S)-2-methylene-19-nor-20-(4-hydroxy-4-methylpentanoyloxy)-9,10-secopregna-5Z,7E-diene-1,3-diol], the concentration giving a half-maximal response (EC50) in series [1] was found to be 0.26 nM. In series [2], the “Metabolic Rate” value is recorded as 46 pmol/min/mg.
The corresponding values for `C=C1C(O)CC(=CC=C2CCCC3(C)C(C(C)OC(=O)CCC(C)(O)C(F)(F)F)=CCC23)CC1O` [Compound of Example 56, (1R,3R,20S)-19-nor-2-methylene-20-[(4R)-5,5,5-trifluoro-4-hydroxy-4-methylpentanoyloxy]-9,10-secopregna-5Z,7E,16-triene-1,3-diol] are 0.47 nM and 102 pmol/min/mg.
As for `C=C1C(=CC=C2CCCC3(C)C2CCC3C(C)OC(=O)C=CC(C)(C)O)CC(O)CC1O` [Compound of Example 8, (1S,3R,20S)-20-[(2E)-4-hydroxy-4-methylpent-2-enoyloxy]-9,10-secopregna-5Z,7E,10(19)-triene-1,3-diol], in series [1], the concentration giving a half-maximal response (EC50) turned out to be 3.4 nM. The “Metabolic Rate” value in series [2] is 38 pmol/min/mg.
As for `C=C1C(=CC=C2CCCC3(C)C2CCC3C(C)OC(=O)CC(=O)C(C)(O)C(F)(F)F)CC(O)CC1O` [Compound of Example 38, (1S,3R,20S)-20-(5,5,5-trifluoro-4-hydroxy-4-methyl-3-oxopentanoyloxy)-9,10-secopregna-5Z,7E,10(19)-triene-1,3-diol], the response in series [1] was half-maximal at 2.3 nM (EC50). Moreover, the “Metabolic Rate” value in series [2] turned out to be 33 pmol/min/mg.
On the same counts, the results for `C=C1C(O)CC(=CC=C2CCCC3(C)C2CCC3C(C)OC(=O)CCC(C)(O)C(F)(F)F)CC1O` [Compound of Example 44, (1R,3R,20S)-2-methylene-19-nor-20-(5,5,5-trifluoro-4-hydroxy-4-methylpentanoyloxy)-9,10-secopregna-5Z,7E-diene-1,3-diol] are 0.25 nM and 95 pmol/min/mg.
On the same counts, the results for `CC(OC(=O)CCC(C)(C)O)C1=CCC2C(=CC=C3CC(O)CC(O)C3)CCCC12C` [Compound of Example 46, (1R,3R,20S)-19-nor-20-(4-hydroxy-4-methylpentanoyloxy)-9,10-secopregna-5Z,7E,16-triene-1,3-diol] are 1.4 nM and 45 pmol/min/mg.
Regarding `C=C1C(=CC=C2CCCC3(C)C(C(C)OC(=O)CCC(C)(O)C(F)(F)F)=CCC23)CC(O)CC1O` (single isomer, unassigned) [Compound of Example 71, (1S,3R,20S)-20-[(4S) or (4R)-5,5,5-trifluoro-4-hydroxy-4-methylpentanoyloxy]-9,10-secopregna-5Z,7E,10(19),16-tetraene-1,3-diol], it took 1.1 nM to reach a half-maximal effect in series [1] (EC50). The “Metabolic Rate” value in series [2] is given as 40 pmol/min/mg.
The compound `C=C1C(=CC=C2CCCC3(C)C2CCC3C(C)OC(=O)CCC(C)(O)C(F)(F)F)CC(O)CC1O` (single isomer, unassigned) [Compound of Example 35, (1S,3R,20S)-20-[(4R) or (4S)-5,5,5-trifluoro-4-hydroxy-4-methylpentanoyloxy]-9,10-secopregna-5Z,7E,10(19)-triene-1,3-diol] had a half-maximal effective concentration (EC50) in series [1] of 0.82 nM. For the same compound, the “Metabolic Rate” value in series [2] stood at 43 pmol/min/mg.
Take `C=C1C(=CC=C2CCCC3(C)C(C(C)OC(=O)CCC(C)(C)O)=CCC23)CC(O)CC1O` [Compound of Example 39, (1S,3R,20S)-20-(4-hydroxy-4-methylpentanoyloxy)-9,10-secopregna-5Z,7E,10(19),16-tetraene-1,3-diol]: in series [1], the response was half-maximal at 1.4 nM (EC50). Also, in series [2], the “Metabolic Rate” value came out at 26 pmol/min/mg.
For `C[C@H](OC(=O)CC[C@@](C)(O)C(F)(F)F)C1=CC[C@H]2/C(=C/C=C3C[C@@H](O)C[C@H](O)C3)CCC[C@]12C` [Compound of Example 69, (1R,3R,20S)-19-nor-20-[(4R)-5,5,5-trifluoro-4-hydroxy-4-methylpentanoyloxy]-9,10-secopregna-5Z,7E,16-triene-1,3-diol], the EC50 in series [1] is 0.77 nM. The “Metabolic Rate” value in series [2] came to 86 pmol/min/mg.
For the compound `CC(OC(=O)CCC(C)(C)O)C1=CCC2C(=CC=C3CC(O)C(C)C(O)C3)CCCC12C` [Compound of Example 62, (1R,2α,3R,20S)-19-nor-2-methyl-20-(4-hydroxy-4-methylpentanoyloxy)-9,10-secopregna-5Z,7E,16-triene-1,3-diol], a half-maximal response in series [1] (EC50) required 0.23 nM. Further, in series [2], the “Metabolic Rate” value was 24 pmol/min/mg.
